Measured values as given in patent US7122353B2, “Targeted carrier fusions for delivery of chemotherapeutic agents” (Wisconsin Alumni Research Foundation, priority 2003, dated 2006).
Counter-ions that a name gives are not always drawn. Numbered stars: 1 amine (or outer) side, 2 acyl side, 3 side chain; on linkers, the order of the positions; unused ones are H or OH. Bridge positions count the residues as written; N and C are the ends. Square brackets hold non-standard residues; d marks the D form. Peptide text beside a SMILES is read from it. I, II: the chains in the order shown. Actinocin(9to1) = Cc1c2oc3c(C)ccc(C(=O)[*:1])c3nc-2c(C(=O)[*:2])c(N)c1=O; NMeV = CN[C@H](C(=O)O)C(C)C; Sar = CNCC(=O)O

Legend:
[1] = cited from earlier work
prostates cancers = conditions: mouse, in vivo; cited from earlier work
[2] = system: cancer cell lines (WM115, KS1617); test: Fluorescence imaging of binding of IC3-OSu-labeled carrier proteins to cancer cells; type: cell-based; conditions: 100 μl of 0.1 mg/ml labeled protein, about 10 min, room temperature, washed 3 times with PBS
Description: WM115 (high-level expression of αvβ3 integrin) and MCF7 (low level expression of αvβ3 integrin, about 10% of WM115) cell lines were grown in α MEM medium enriched with 10% fetal bovine serum (FBS) and 60 μg/ml of penicillin and 100 μg/ml of streptomycin. KS1617 cell line (high-level expression of CD13) was grown in RPMI1640 medium also enriched with 10% FBS and 60 μg/ml of penicillin and 100 μg/ml of streptomycin. The cell cultures were passed to fresh medium every 2–3 days. For fluorescent imaging, the cells were grown in 4-well culture slides to about 70% confluence before use.
To facilitate detection, the recombinant CTP-containing carrier proteins were labeled with Dojindo IC3-Osu, which reacts with lysine residues of the protein, according to the recommended protocols by the manufacturer (Dojindo, Gaithersburg, Md.) (FIG. 5). About 0.5 mg/ml protein was reacted with 3-fold excess of the fluorescent dye in dark at room temperature for 1 hr, and the extra dye was removed using Bio-Rad Econo-Pac desalting column. The labeling efficiency was measured using UV-vis spectroscopy. On average, about 25–35% of protein molecules were labeled.
The binding specificity between CTP-containing carrier proteins and various cancer cell lines was evaluated with both the native carrier proteins and normal cell lines as negative controls. […]

Molecule: Cc1c2oc3c(C)ccc(C(=O)N[C@@H]4C(=O)N[C@H](C(C)C)C(=O)N5CCC[C@H]5C(=O)N(C)CC(=O)N(C)[C@@H](C(C)C)C(=O)O[C@@H]4C)c3nc-2c(C(=O)N[C@@H]2C(=O)N[C@H](C(C)C)C(=O)N3CCC[C@H]3C(=O)N(C)CC(=O)N(C)[C@@H](C(C)C)C(=O)O[C@@H]2C)c(N)c1=O [Actinomycin D] (I: T[dV]P[Sar][NMeV] / II: T[dV]P[Sar][NMeV]; ester I:1-I:C, II:1-II:C; linker I:N-II:N via Actinocin(9to1))
- part of the dose excreted intact into the bile ([1]; in vivo): Half of the dose

Molecule: COc1cccc2c1C(=O)c1c(O)c3c(c(O)c1C2=O)C[C@@](O)(C(C)=O)C[C@@H]3O[C@H]1C[C@H](N)[C@H](O)[C@H](C)O1 [Daunorubicin, 5,12-Naphthacenedione, (8S-cis)-8-acetyl-10-((3-amino-2,3,6-trideoxy-a-L-lyxo-hexanopyranosyl)oxy)-7,8,9,10-tetrahydro-6,8,11-trihydroxy-10-methoxy-, hydrochloride]
- secreted into the bile ([1]; in vivo): about 40%

Molecule: CC[C@]1(O)C[C@@H]2CN(CCc3c([nH]c4ccccc34)[C@@](C(=O)OC)(c3cc4c(cc3OC)N(C)[C@H]3[C@@](O)(C(=O)OC)[C@H](OC(C)=O)[C@]5(CC)C=CCN6CC[C@]43[C@@H]65)C2)C1 [Vinblastine]
- plasma half-life after distribution (first value) ([1]; after intravenous injection): approximately 1 hours
- plasma half-life after distribution (second value) ([1]; after intravenous injection): ~20 h

Molecule: SMSIARL [cancer-targeting peptide for prostate cancer]
- targeting to prostates cancers relative to other organs (prostates cancers): 10–15 times

B1: native CagA: His-tagged native C-1027 apo-protein encoded by the cagA gene of Streptomyces globisporus; negative control (protein)
chain: APAFSVSPASGLSDGQSVSVSVSGAAAGETYYIAQCAPVGGQDACNPATATSFTTDASGAASFSFVVRKSYTGSTPEGTPVGSVDCATAACNLGAGNSGLDLGHVALTFG
modifications: left off: small tags and cut ends
notes: His-tagged native C-1027 apo-protein encoded by the cagA gene of Streptomyces globisporus; negative control
- fluorescence detected on cells after incubation with labeled protein [2]: no significant fluorescence

B2: native NcsA: His-tagged native neocarzinostatin apo-protein encoded by the ncsA gene of Streptomyces carzinostaticus; negative control (protein)
chain: AAPTATVTPSSGLSDGTVVKVAGAGLQAGTAYDVGQCAWVDTGVLACNPADFSSVTADANGSASTSLTVRRSFEGFLFDGTRWGTVDCTTAACQVGLSDAAGNGPEGVAISFN
modifications: left off: small tags and cut ends
notes: His-tagged native neocarzinostatin apo-protein encoded by the ncsA gene of Streptomyces carzinostaticus; negative control
- fluorescence detected on cells after incubation with labeled protein [2]: no significant fluorescence
